# Source: paper PMC5361054, “Exploring the Association of Surface Plasmon Resonance with Recombinant MHC:Ig Hybrid Protein as a Tool for Detecting T Lymphocytes in Mice Infected with Leishmania (Leishmania) amazonensis” (BioMed Research International, 2017)
# Molecular target: H-2 L^d:Ig (DimerX) protein
# Assay: SPR kinetics of synthetic peptide binding to immobilized DimerX
# Design: species or system Mouse
# Conditions: KD = kd/ka from SPR at 25°C; read-out: affinity constant (KD)
# Description: Surface Functionalization of Sensor Chip (Steps 1 and 2). The functionalization process was performed in eight steps using running buffer (10 mM HEPES, 3 mM EDTA, 150 mM NaCl, and 0.005% Tween 20, pH 7.4) at a continuous flow rate (Fr): (i) injection of 10 μL of 50 mM HCl (Fr = 10 μL/min); (ii) injection of 100 μL 10 mM CH3COOH (Fr = 50 μL/min); (iii) injection of 150 μL of coupling agents (1 : 1) 400 mM EDC : NHS (Fr = 15 μL/min); (iv) injection of 100 μL 10 mM CH3COOH (Fr = 50 μL/min); (v) injection of 100 μL (0.5 μg) of DimerX H-2 L^d:Ig (Fr = 10 μL/min); (vi) injection of 100 μL 10 mM CH3COOH (Fr = 50 μL/min); (vii) injection of 150 μL 100 mM ethanolamine (Fr = 20 μL/min); and (viii) injection of 200 μL 50 mM HCl (Fr = 50 μL/min).
# Complex Formation of H-2 L ^d :Ig/Peptide (Step 3). Binding of peptides to protein DimerX was performed through the injection of 100 μL of each synthetic peptide over the functionalized sensor chip (Fr = 10 μL/min). The peptides (2 mg/mL) were diluted in filtrated PBS, which was also used as the running buffer. The concentration of peptides for binding to the DimerX was determined according to the manufacturer's instructions:(1) Mp=MH·R·Dp/DH, where Mp is micrograms of the peptide, MH is micrograms of H-2 in the reaction, R is molar excess (160 mol) between the peptide and protein H-2, Dp is molecular weight of the peptide, and DH is molecular weight of DimerX (250,000 Da).
# Affinity Constants and Gibbs Free Energy. […] The following calculation was used to obtain the KD for interactions that rapidly reach equilibrium:(2) KD=kd/ka. The formation of molecular complex between DimerX and peptides complex was also analyzed to calculate the Gibbs free energy of dissociation. This energy is related to the equilibrium constant (Keq) of the transition state between the product (DimerX/peptide) and its transient state. The values of Keq were calculated using the ka and kd data obtained from the SPR assay at 25°C:(3) ΔG^°=−RTln1/Keq.
# The kinetic parameters of DimerX/peptides complexes were assessed, prior to the ex vivo assay with the mouse cells, to ensure that the assayed peptides could stably bind to the H-2 cleft of DimerX proteins. The DimerX proteins were immobilized onto the sensor chip using the EDC/NHS methodology for covalent binding and, thus, we assumed that the α1 and α2 domains of the recombinant H-2 were free to interact with the synthetic peptides in solution. The RU value obtained after DimerX immobilization was taken as reference to define the baseline to measure peptides binding (Figure 1).
# Chain of H-2 L^d:Ig (DimerX) protein (P01897 25-298 limits assumed): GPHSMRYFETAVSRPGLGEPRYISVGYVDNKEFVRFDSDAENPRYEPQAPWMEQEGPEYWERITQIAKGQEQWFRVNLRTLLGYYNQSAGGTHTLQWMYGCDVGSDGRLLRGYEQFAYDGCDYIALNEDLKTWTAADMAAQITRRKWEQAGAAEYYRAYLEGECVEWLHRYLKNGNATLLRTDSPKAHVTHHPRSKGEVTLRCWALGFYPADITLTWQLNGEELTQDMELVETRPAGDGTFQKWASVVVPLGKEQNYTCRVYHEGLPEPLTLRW
# Chain of H-2 L^d:Ig (DimerX) protein (P01887 21-119, further chain): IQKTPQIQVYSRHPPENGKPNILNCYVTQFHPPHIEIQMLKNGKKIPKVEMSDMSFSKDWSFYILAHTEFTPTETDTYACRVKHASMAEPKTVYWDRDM
row,Sequence,Kd
1,"CLGGGLCL [P6.4, synthetic peptide CLGGGLCL derived from the COOH-terminal region of cysteine proteinase B of L. (L.) amazonensis]",9 nM
2,"EFCLGGGLC [P6.5, synthetic peptide … derived from the COOH-terminal region of cysteine proteinase B of L. (L.) amazonensis]",0.7 nM
3,"MVEQVICFD [P1.9, synthetic peptide … derived from the COOH-terminal region of cysteine proteinase B of L. (L.) amazonensis]",74 nM
4,"VEQVICFD [P1.10, synthetic peptide VEQVICFD derived from the COOH-terminal region of cysteine proteinase B of L. (L.) amazonensis]",1 nM

# Same assay, conditions: SPR, DimerX immobilized on carboxylated sensor chip by EDC/NHS, peptide in PBS, neutral pH, 25°C
Sequence,association constant (ka),dissociation constant (kd)
"CLGGGLCL [P6.4, synthetic peptide CLGGGLCL derived from the COOH-terminal region of cysteine proteinase B of L. (L.) amazonensis]",1.20 × 10^7 M^−1 S^−1,0.1089 S^−1
"EFCLGGGLC [P6.5, synthetic peptide … derived from the COOH-terminal region of cysteine proteinase B of L. (L.) amazonensis]",6.40 × 10^7 M^−1 S^−1,0.0470 S^−1
"MVEQVICFD [P1.9, synthetic peptide … derived from the COOH-terminal region of cysteine proteinase B of L. (L.) amazonensis]",1.57 × 10^6 M^−1 S^−1,0.1157 S^−1
"VEQVICFD [P1.10, synthetic peptide VEQVICFD derived from the COOH-terminal region of cysteine proteinase B of L. (L.) amazonensis]",1.10 × 10^8 M^−1 S^−1,0.1230 S^−1

# Tested on: lymph node cells (T lymphocytes) from L. (L.) amazonensis-infected BALB/c mice
# Assay: SPR interaction of lymph node cells with immobilized DimerX/peptide complexes
# Type: cell-based
# Conditions: RUd of cells from infected mice minus RUd of cells from noninfected mice; 10^4 cells in PBS; 1st week of infection
# Description: BALB/c 5–7-week-old female mice (H-2 haplotype^d) were obtained from the animal care facility of Fiocruz (Centro de Criação de Animais de Laboratório (CECAL), Fiocruz). For the experimental infections, each animal was inoculated subcutaneously with 1.0 × 10^5 stationary-phase promastigotes in PBS (50 μL) in the left hind paw. For in vitro and ex vivo assays, cells were isolated from the lesion-draining popliteal lymph nodes of five mice infected with L. (L.) amazonensis. After isolating and counting the viable cells, these were adjusted and resuspended in RPMI medium supplemented with 2% FCS (5.0 × 10^5 cells/mL). All procedures using animals were previously approved by the Animal Ethics Committee of Fiocruz (Comissão de Ética no Uso de Animais (CEUA), Fiocruz; L-0006/07).
# Interaction of the Cells with the Complex DimerX/Peptide (Step 4). The reflectance values were expressed as resonance units per second (RU/s). In these assays, the kinetics of association and dissociation between immobilized DimerX/peptide complexes and lymph node cells were determined. These assays were performed with 10^4 cells suspended in PBS in a final volume of 100 μL (Fr = 5 μL/min).
# Regeneration of the Sensor Chips (Step 5). The regeneration was performed by the injection of 250 μL of 30 mM HCl (Fr = 50 μL/min) into the system, followed by the injection of 200 μL PBS (Fr = 50 μL/min). After this procedure, only the DimerX molecules were left on the sensor chip surface; thus they were able to form new complexes with different peptides and interact again with cells.
# Lymph node cells were injected onto SPR chips covered by immobilized DimerX/peptides complexes (Figure 4). In these experiments, due to the complexity to define the kinetic parameters for whole cells, the RU values for association (RUa) and dissociation (RUd) were used as standards to assess interaction of cells with the complexes. Also, as the stability of RUd signal over time relates to the stability of interaction, it was used as parameter to define the binding of reactive cells.
# Furthermore, experimental evidences support the hypothesis that the binding of the cells from infected mice to the immobilized complexes is specific, once the RUd values obtained for these interactions were consistently higher that those observed for the interaction of cells from noninfected mice. The RU values obtained by the subtraction of the nonspecific interaction RU (cells from noninfected animals) from the specific interaction RU (cells from infected mice) were considered as representative of the binding effectiveness (Table 2). These effectiveness RU values allowed observing a different trend of T lymphocytes recognition for each peptide tested throughout the experimental infection timeline (Table 2).
row,Sequence,RUs (subtractive dissociation response) 1st week
1,"MVEQVICFD [P1.9, synthetic peptide … derived from the COOH-terminal region of cysteine proteinase B of L. (L.) amazonensis]",115 RU

# Same assay, conditions: RUd of cells from infected mice minus RUd of cells from noninfected mice; 10^4 cells in PBS; 3rd week of infection
row,Sequence,RUs (subtractive dissociation response) 3rd week
1,"CLGGGLCL [P6.4, synthetic peptide CLGGGLCL derived from the COOH-terminal region of cysteine proteinase B of L. (L.) amazonensis]",100 RU
2,"EFCLGGGLC [P6.5, synthetic peptide … derived from the COOH-terminal region of cysteine proteinase B of L. (L.) amazonensis]",55 RU
3,"MVEQVICFD [P1.9, synthetic peptide … derived from the COOH-terminal region of cysteine proteinase B of L. (L.) amazonensis]",181 RU
4,"VEQVICFD [P1.10, synthetic peptide VEQVICFD derived from the COOH-terminal region of cysteine proteinase B of L. (L.) amazonensis]",227 RU

# Same assay, conditions: RUd of cells from infected mice minus RUd of cells from noninfected mice; 10^4 cells in PBS; 4th week of infection
row,Sequence,RUs (subtractive dissociation response) 4th week
1,"CLGGGLCL [P6.4, synthetic peptide CLGGGLCL derived from the COOH-terminal region of cysteine proteinase B of L. (L.) amazonensis]",127 RU
2,"EFCLGGGLC [P6.5, synthetic peptide … derived from the COOH-terminal region of cysteine proteinase B of L. (L.) amazonensis]",185 RU
3,"MVEQVICFD [P1.9, synthetic peptide … derived from the COOH-terminal region of cysteine proteinase B of L. (L.) amazonensis]",149 RU

# Same assay, conditions: RUd of cells from infected mice minus RUd of cells from noninfected mice; 10^4 cells in PBS; 6th week of infection
row,Sequence,RUs (subtractive dissociation response) 6th week
1,"CLGGGLCL [P6.4, synthetic peptide CLGGGLCL derived from the COOH-terminal region of cysteine proteinase B of L. (L.) amazonensis]",140 RU
2,"EFCLGGGLC [P6.5, synthetic peptide … derived from the COOH-terminal region of cysteine proteinase B of L. (L.) amazonensis]",109 RU
3,"MVEQVICFD [P1.9, synthetic peptide … derived from the COOH-terminal region of cysteine proteinase B of L. (L.) amazonensis]",118 RU
4,"VEQVICFD [P1.10, synthetic peptide VEQVICFD derived from the COOH-terminal region of cysteine proteinase B of L. (L.) amazonensis]",123 RU

# Same assay, conditions: RUd of cells from infected mice minus RUd of cells from noninfected mice; 10^4 cells in PBS; 12th week of infection
row,Sequence,RUs (subtractive dissociation response) 12th week
1,"EFCLGGGLC [P6.5, synthetic peptide … derived from the COOH-terminal region of cysteine proteinase B of L. (L.) amazonensis]",27 RU
2,"MVEQVICFD [P1.9, synthetic peptide … derived from the COOH-terminal region of cysteine proteinase B of L. (L.) amazonensis]",120 RU
3,"VEQVICFD [P1.10, synthetic peptide VEQVICFD derived from the COOH-terminal region of cysteine proteinase B of L. (L.) amazonensis]",31 RU

# Same assay, conditions: RUd of cells from infected mice minus RUd of cells from noninfected mice; 10^4 cells in PBS; 18th week of infection
row,Sequence,RUs (subtractive dissociation response) 18th week
1,"CLGGGLCL [P6.4, synthetic peptide CLGGGLCL derived from the COOH-terminal region of cysteine proteinase B of L. (L.) amazonensis]",66 RU
2,"EFCLGGGLC [P6.5, synthetic peptide … derived from the COOH-terminal region of cysteine proteinase B of L. (L.) amazonensis]",85 RU
3,"MVEQVICFD [P1.9, synthetic peptide … derived from the COOH-terminal region of cysteine proteinase B of L. (L.) amazonensis]",66 RU
4,"VEQVICFD [P1.10, synthetic peptide VEQVICFD derived from the COOH-terminal region of cysteine proteinase B of L. (L.) amazonensis]",44 RU

# Same assay, conditions: weeks 1 to 18 of infection, result in words
row,Sequence,trend of reactivity of peptide-reactive T lymphocytes along the infection
1,"CLGGGLCL [P6.4, synthetic peptide CLGGGLCL derived from the COOH-terminal region of cysteine proteinase B of L. (L.) amazonensis]",oscillation in their reactivity
2,"EFCLGGGLC [P6.5, synthetic peptide … derived from the COOH-terminal region of cysteine proteinase B of L. (L.) amazonensis]",oscillation in their reactivity
3,"MVEQVICFD [P1.9, synthetic peptide … derived from the COOH-terminal region of cysteine proteinase B of L. (L.) amazonensis]",oscillation in their reactivity
4,"VEQVICFD [P1.10, synthetic peptide VEQVICFD derived from the COOH-terminal region of cysteine proteinase B of L. (L.) amazonensis]",clear tendency to diminish their reactivity along the infection
